Article PMC11442134, “The phytopathogen Xanthomonas campestris senses and effluxes salicylic acid via a sensor HepR and an RND family efflux pump to promote virulence in host plants” (mLife, 2024)

Legend:
[1] = target: T1, HepR (Xanthomonas campestris, UniProt Q8P3A9); experiment: ITC with purified His-HepR (Kd […]); confirmed by SPR (Kd […]); SA inhibits HepR–Phep binding in EMSA
T1 construct: gene slyA; 147-amino acid protein, His-tagged HepR (pET28a), dimer

[2] = target: HepR (MarR family transcription factor, Xcc4167) (Xanthomonas campestris pv. campestris (strain XC1)); experiment: SEC; FPLC gel filtration of Ni-NTA purified His-tagged HepR on Superdex 75; 25 mM HEPES, 150 mM NaCl, pH 7.4

Compound	Kd [1] [µM]	stoichiometry N [2]
O=C(O)c1ccccc1O [SA, Salicylic acid]	19.3	–
HepR (MarR family transcription factor, Xcc4167) (natural protein)	–	2
